“Also recorded” adds a separate entry of the source.
Experiments:
BRD4 = assay: Nuclear BRD4 distribution (soluble versus chromatin-bound) by differential salt extraction and western blot in HeLa cells; type: cell-based, human; conditions: western blot
Description: (§1) FIG. 5. BRD4 is required for ISG transcription. (A) HeLa cells were either left untreated or treated with IFN-α for 1 h in presence or absence of JQ-1 or HMBA. Using primers spanning intron-exon junctions, nuclear pre-mRNA for ISG54 and γ-actin were quantified by real-time RT-PCR and normalized to GAPDH mRNA. (B) Control and BRD4 KD cells were either left untreated or treated with IFN-α. ISG56 and BRD4 mRNA were quantified using real-time RT-PCR and normalized to GAPDH mRNA abundance. (C) HEK293T cells were transfected with pcDNA3 (Ctl) or Brd4 expression constructs along with a luciferase reporter driven by the ISG54 promoter. 24 h after transfection, cells were either left untreated or treated with IFN-α in the absence or presence of TSA before being assayed for luciferase activity (left panel). HEK293T cells were transfected with pcDNA3 (Ctl) or Brd4 expression constructs along with a luciferase reporter driven by the constitutive RSV promoter and assayed for luciferase activity after 36 h (right panel). (D) Hela cells were either left untreated or treated with IFN-α for 2 h in presence or absence of TSA or Anacardic acid (AA). Nuclear proteins were extracted as a soluble fraction and a chromatin bound fraction and analyzed by western blotting using anti-BRD4, H4-AcK5 and actin antibodies. […] (F) ChIP assays were performed with antibodies against BRD4 and recovered ISG56, Mx1 and IRF9 TSS spanning sequences were quantified by real-time PCR, normalized to input, and represented as fold enrichment over the untreated sample.
BRD4 is recruited to active promoters along with polymerase, and it associates with elongating polymerase to affect transcriptional elongation. […] Cells were treated with IFN in the presence or absence of TSA, and nuclear BRD4 was quantified in soluble versus chromatin-bound fractions by differential salt extraction (FIG. 5D). Most BRD4 was detected in the soluble nucleoplasm fraction in untreated or IFN-treated cells (FIG. 5D, compare lanes 1 and 2 with 5 and 6). […]
Nuclear extracts were prepared and analyzed by immunoblotting as follows. […]

[1] = system: BRD4 at ISG56, Mx1 and IRF9 TSS; assay: ChIP-qPCR for BRD4 at ISG promoters in HeLa cells; type: cell-based, human; conditions: 1 h IFN stimulation
Description: as §1, with “HEK293T cells were transfected with pcDNA3 (Ctl) or Brd4 expression constructs along with a luciferase reporter driven by the constitutive RSV promoter and assayed for luciferase activity after 36 h (right panel). (D) Hela cells were either left untreated or treated with IFN-α for 2 h in presence or absence of TSA or Anacardic acid (AA).” left out, “sample. […]” for “sample.”
Chromatin immunoprecipitation was performed as follows. […] Immunoprecipitated DNA sequences were recovered by alcohol precipitation and quantified by real-time PCR compared with input genomic DNA. […]

CC(/C=C/C(=O)NO)=C\[C@@H](C)C(=O)c1ccc(N(C)C)cc1 [TSA, Trichostatin A]
soluble nuclear BRD4 (BRD4; IFN-α 2 h): undetectable; also recorded: depletion | histone acetylation (acetylated H4K5) (BRD4): large increase | IFN-induced BRD4 recruitment to ISG promoters [1]: abrogated

Source: US20190351012A1, “TARGETING OF INTERFERON-STIMULATED GENE EXPRESSION TO TREAT INTERFERONOPATHIES” (New York University, priority 2018, published 2019)
